Experimental data taken from ChEMBL document CHEMBL2385069, “Thiourea derivatives incorporating a hippuric acid moiety: synthesis and evaluation of antibacterial and antifungal activities” (2013).
Values after ≈ are worked out from the molar mass of the structure shown.

Key:
Type in all cases: functional
Candida albicans [1] = test: Antifungal activity against Candida albicans NRRLY-477 assessed as diameter of inhibition zone at 1 mg/ml after 24 hrs by agar well diffusion method; settings: NRRLY-477, 24 h, read-out: DIZ
Saccharomyces cerevisiae [2] = test: Antifungal activity against Saccharomyces cerevisiae assessed as diameter of inhibition zone at 1 mg/ml after 24 hrs by agar well diffusion method; settings: read-out: DIZ
Proteus vulgaris [3] = test: Antibacterial activity against Proteus vulgaris assessed as diameter of inhibition zone at 1 mg/ml after 24 hrs by agar well diffusion method; settings: read-out: DIZ
Micrococcus luteus [4] = test: Antibacterial activity against Sarcina lutea assessed as diameter of inhibition zone at 1 mg/ml after 24 hrs by agar well diffusion method; settings: read-out: DIZ
Escherichia coli [5] = test: Antibacterial activity against Escherichia coli ATCC 25922 assessed as diameter of inhibition zone at 1 mg/ml after 24 hrs by agar well diffusion method; settings: ATCC 25922, 24 h, read-out: DIZ
Pseudomonas aeruginosa [6] = test: Antibacterial activity against Pseudomonas aeruginosa ATCC 27953 assessed as diameter of inhibition zone at 1 mg/ml after 24 hrs by agar well diffusion method; settings: ATCC 27953, 24 h, read-out: DIZ
Klebsiella pneumoniae [7] = test: Antibacterial activity against Klebsiella pneumoniae ATCC 13883 assessed as diameter of inhibition zone at 1 mg/ml after 24 hrs by agar well diffusion method; settings: ATCC 13883, 24 h, read-out: DIZ
Priestia megaterium [8] = test: Antibacterial activity against Bacillus megaterium ATCC 9885 assessed as diameter of inhibition zone at 1 mg/ml after 24 hrs by agar well diffusion method; settings: ATCC 9885, 24 h, read-out: DIZ
Bacillus subtilis [9] = test: Antibacterial activity against Bacillus subtilis ATCC 6633 assessed as diameter of inhibition zone at 1 mg/ml after 24 hrs by agar well diffusion method; settings: ATCC 6633, 24 h, read-out: DIZ
Staphylococcus aureus [10] = test: Antibacterial activity against Staphylococcus aureus ATCC 29213 assessed as diameter of inhibition zone at 1 mg/ml after 24 hrs by agar well diffusion method; settings: ATCC 29213, 24 h, read-out: DIZ
Candida albicans [11] = test: Antifungal activity against Candida albicans NRRLY-477 after 24 hrs by two fold serial dilution technique; settings: NRRLY-477, 24 h
Saccharomyces cerevisiae [12] = test: Antifungal activity against Saccharomyces cerevisiae after 24 hrs by two fold serial dilution technique
Proteus vulgaris [13] = test: Antibacterial activity against Proteus vulgaris after 24 hrs by two fold serial dilution technique
Micrococcus luteus [14] = test: Antibacterial activity against Sarcina lutea after 24 hrs by two fold serial dilution technique
Escherichia coli [15] = test: Antibacterial activity against Escherichia coli ATCC 25922 after 24 hrs by two fold serial dilution technique; settings: ATCC 25922, 24 h
Pseudomonas aeruginosa [16] = test: Antibacterial activity against Pseudomonas aeruginosa ATCC 27953 after 24 hrs by two fold serial dilution technique; settings: ATCC 27953, 24 h
Klebsiella pneumoniae [17] = test: Antibacterial activity against Klebsiella pneumoniae ATCC 13883 after 24 hrs by two fold serial dilution technique; settings: ATCC 13883, 24 h
Priestia megaterium [18] = test: Antibacterial activity against Bacillus megaterium ATCC 9885 after 24 hrs by two fold serial dilution technique; settings: ATCC 9885, 24 h
Bacillus subtilis [19] = test: Antibacterial activity against Bacillus subtilis ATCC 6633 after 24 hrs by two fold serial dilution technique; settings: ATCC 6633, 24 h
Staphylococcus aureus [20] = test: Antibacterial activity against Staphylococcus aureus ATCC 29213 after 24 hrs by two fold serial dilution technique; settings: ATCC 29213, 24 h

Structure (SMILES)	zone of inhibition at 1000 µg/mL (Candida albicans [1]) [mm]	zone of inhibition at 1000 µg/mL (Saccharomyces cerevisiae [2]) [mm]	zone of inhibition at 1000 µg/mL (Proteus vulgaris [3]) [mm]	zone of inhibition at 1000 µg/mL (Micrococcus luteus [4]) [mm]	zone of inhibition at 1000 µg/mL (Escherichia coli [5]) [mm]	zone of inhibition at 1000 µg/mL (Pseudomonas aeruginosa [6]) [mm]	zone of inhibition at 1000 µg/mL (Klebsiella pneumoniae [7]) [mm]	zone of inhibition at 1000 µg/mL (Priestia megaterium [8]) [mm]	zone of inhibition at 1000 µg/mL (Bacillus subtilis [9]) [mm]	zone of inhibition at 1000 µg/mL (Staphylococcus aureus [10]) [mm]	MIC (Candida albicans [11]) [µg/mL]	MIC (Saccharomyces cerevisiae [12]) [µg/mL]	MIC (Proteus vulgaris [13]) [µg/mL]	MIC (Micrococcus luteus [14]) [µg/mL]	MIC (Escherichia coli [15]) [µg/mL]	MIC (Pseudomonas aeruginosa [16]) [µg/mL]	MIC (Klebsiella pneumoniae [17]) [µg/mL]	MIC (Priestia megaterium [18]) [µg/mL]	MIC (Bacillus subtilis [19]) [µg/mL]	MIC (Staphylococcus aureus [20]) [µg/mL]
N=C(N)NS(=O)(=O)c1ccc(NC(=S)Nc2ccc(C(=O)NCC(=O)O)cc2)cc1	0	15	0	0	0	0	0	20	16	0										
O=C(O)CNC(=O)c1ccc(NC(=S)Nc2ccc(S(=O)(=O)Nc3nccs3)cc2)cc1	0	0	0	0	0	30	0	14	15	0										
O=C(O)CNC(=O)c1ccc(NC(=S)Nc2ccc(S(=O)(=O)Nc3ccccn3)cc2)cc1	11	20	0	0	21	21	20	0	12	23										
O=C(O)CNC(=O)c1ccc(NC(=S)Nc2ccc(C(=O)NCC(=O)O)cc2)cc1	19	18	21	15	22	22	23	17	18	22	12.5 (≈ 29 µM)	50 (≈ 116 µM)	25 (≈ 58.1 µM)	25 (≈ 58.1 µM)	12.5 (≈ 29 µM)	12.5 (≈ 29 µM)	12.5 (≈ 29 µM)	12.5 (≈ 29 µM)	50 (≈ 116 µM)	50 (≈ 116 µM)
O=C(O)CNC(=O)c1ccc(NC(=S)Nc2ccc(NC(=S)Nc3ccc(C(=O)NCC(=O)O)cc3)cc2)cc1	26	26	18	10	24	22	16	24	31	20	12.5 (≈ 21.5 µM)	25 (≈ 43.1 µM)	25 (≈ 43.1 µM)	50 (≈ 86.1 µM)	25 (≈ 43.1 µM)	12.5 (≈ 21.5 µM)	12.5 (≈ 21.5 µM)	12.5 (≈ 21.5 µM)	12.5 (≈ 21.5 µM)	50 (≈ 86.1 µM)
Cc1c(NC(=S)Nc2ccc(C(=O)NCC(=O)O)cc2)c(=O)n(-c2ccccc2)n1C	0	17	19	24	14	22	19	18	15	18										
O=C(O)CNC(=O)c1ccc(NC(=S)NNC(=O)c2ccccc2)cc1	9	13	15	20	15	15	20	10	12	22										
O=C(O)CNC(=O)c1ccc(NC(=S)NNC(=O)c2ccncc2)cc1	12	0	0	24	0	12	0	23	0	0										
CCCCNC(=S)Nc1ccc(C(=O)NCC(=O)O)cc1	10	18	21	9	22	22	20	16	13	22										
